The record followed here is patent US20240228535A1 (priority 2022, published 2024).

The assay addresses SARS2 coronavirus 3CL protease (Severe acute respiratory syndrome coronavirus 2, UniProt P0DTD1). The assay can be described thus: biochemical. Particulars: 5 nM enzyme, 30 min pre-incubation with compound, 15 μM peptide substrate, 4 h at room temperature; read-out: FRET Potency (nM); IC50 values in the SARS2 3CLPro FRET assay.
Turning to `CNC(=O)C(=O)[C@H](C[C@@H]1C[C@@H](C)NC1=O)NC(=O)c1cc(C(F)F)ccc1NC(=O)C1(C(F)(F)F)CC1` [Example 203, 5-(difluoromethyl)-N-[(1S)-3-(methylamino)-1-[[(3S,5R)-5-methyl-2-oxo-pyrrolidin-3-yl]methyl]-2,3-dioxo-propyl]-2-[[1-(trifluoromethyl)cyclopropane-carbonyl]amino]benzamide], the IC50 is 36.6 nM.
With `CNC(=O)C(=O)[C@H](C[C@@H]1CCNC1=O)NC(=O)c1cc(Cl)ccc1NC(=O)OC` [Example 106] the figure was 4.3 nM.
With `CNC(=O)C(=O)[C@H](C[C@@H]1C[C@@H](C)NC1=O)NC(=O)c1cc(C(F)(F)F)ccc1NC(=O)OC1CC1` [Example 169, cyclopropyl N-[2-[(1S)-3-(methylamino)-1-[[(3S,5R)-5-methyl-2-oxo-pyrrolidin-3-yl]methyl]-2,3-dioxo-propyl]carbamoyl]-4-(trifluoromethyl)phenyl] carbamate] the figure was 75.3 nM.
The result for `CCOC(=O)Nc1ccc(Cl)cc1C(=O)N[C@@H](C[C@@H]1C[C@@H](C)NC1=O)C(=O)C(=O)NC` [Example 129, ethyl N-[4-chloro-2-[[(1S)-3-(methylamino)-1-[[(3S,5R)-5-methyl-2-oxo-pyrrolidin-3-yl]methyl]-2,3-dioxo-propyl]carbamoyl]phenyl] carbamate] reads 5.9 nM.
For `CNC(=O)C(=O)[C@H](C[C@@H]1C[C@@H](C)NC1=O)NC(=O)c1cc(Cl)cc(Cl)c1NC(=O)c1ccnc(C(F)(F)F)c1` [Example 231, N-[2,4-dichloro-6-[[(1S)-3-(methylamino)-1-[[(3S,5R)-5-methyl-2-oxo-pyrrolidin-3-yl]methyl]-2,3-dioxo-propyl]carbamoyl]phenyl]-2-(trifluoromethyl)pyridine-4-carboxamide], the IC50 came to 5.6 nM.
The result for `C[C@@H]1C[C@@H](C[C@H](NC(=O)c2cc(Cl)ccc2NC(=O)C2CC2C(F)(F)F)C(=O)C(=O)NC2CC2)C(=O)N1` (stereo partly drawn) [Example 84, 5-chloro-N-[(1S)-3-(cyclopropylamino)-1-[[(3S,5R)-5-methyl-2-oxo-pyrrolidin-3-yl]methyl]-2,3-dioxo-propyl]-2-[[2-(trifluoromethyl)cyclopropane-carbonyl]amino]benzamide] reads 20.6 nM.
In the case of `CNC(=O)C(=O)[C@H](C[C@@H]1CCNC1=O)NC(=O)c1cc(Cl)ccc1NC(=O)OC1CC(F)(F)C1` [Example 173], the IC50 is 6.7 nM.
The result for `CNC(=O)C(=O)[C@H](C[C@@H]1C[C@@H](C)NC1=O)NC(=O)c1cc(C(F)F)ccc1NC(=O)OC` [Example 130, methyl N-[4-(difluoromethyl)-2-[[(1S)-3-(methylamino)-1-[[(3S,5R)-5-methyl-2-oxo-pyrrolidin-3-yl]methyl]-2,3-dioxo-propyl]carbamoyl]phenyl] carbamate] reads 20.7 nM.
With `O=C(CCC(F)(F)F)Nc1cc(F)c(Cl)cc1C(=O)N[C@@H](C[C@@H]1CCNC1=O)C(=O)C(=O)NC1CC1` [Example 56, 5-chloro-N-[(1S)-3-(cyclopropylamino)-2,3-dioxo-1-[[(3S)-2-oxopyrrolidin-3-yl]methyl]propyl]-4-fluoro-2-(4,4,4-trifluorobutanoylamino) benzamide] the figure was 8.1 nM; with `CNC(=O)C(=O)[C@H](C[C@@H]1C[C@@H](C)NC1=O)NC(=O)c1cc(F)cnc1NC(=O)c1cccc(C(F)(F)F)c1` [Example 28, 5-fluoro-N-[(1S)-3-(methylamino)-1-[[(3S,5R)-5-methyl-2-oxo-pyrrolidin-3-yl]methyl]-2,3-dioxo-propyl]-2-[[3-(trifluoromethyl)benzoyl]amino]pyridine-3-carboxamide], 13.2 nM; with `CNC(=O)C(=O)[C@H](C[C@@H]1C[C@@H](C)NC1=O)NC(=O)c1cc(Cl)ccc1NC(=O)c1ccc(C(F)(F)F)nc1` [Example 76, N-[4-chloro-2-[[(1S)-3-(methylamino)-1-[[(3S,5R)-5-methyl-2-oxo-pyrrolidin-3-yl]methyl]-2,3-dioxo-propyl]carbamoyl]phenyl]-6-(trifluoromethyl)pyridine-3-carboxamide], 5.3 nM.
For `CNC(=O)C(=O)[C@H](C[C@@H]1C[C@@H](C)NC1=O)NC(=O)c1cc(Cl)ccc1NC(=O)C(C)c1cscn1` (stereo partly drawn) [Example 195, 5-chloro-N-[(1S)-3-(methylamino)-1-[[(3S,5R)-5-methyl-2-oxo-pyrrolidin-3-yl]methyl]-2,3-dioxo-propyl]-2-(2-thiazol-4-ylpropanoylamino)benzamide], the IC50 came to 3.1 nM.
The result for `CNC(=O)C(=O)[C@H](C[C@@H]1C[C@@H](C)NC1=O)NC(=O)c1cc(Cl)ccc1NC(=O)OC1CCCC1` [Example 167, cyclopentyl N-[4-chloro-2-[[(1S)-3-(methylamino)-1-[[(3S,5R)-5-methyl-2-oxo-pyrrolidin-3-yl]methyl]-2,3-dioxo-propyl]carbamoyl]phenyl] carbamate] reads 5.5 nM; that for `C[C@@H]1C[C@@H](C[C@H](NC(=O)c2cc(Cl)ccc2NC(=O)c2cncc(C(F)(F)F)c2)C(=O)C(=O)NC2CC2)C(=O)N1` [Example 94, N-[4-chloro-2-[[(1S)-3-(cyclopropylamino)-1-[[(3S,5R)-5-methyl-2-oxo-pyrrolidin-3-yl]methyl]-2,3-dioxo-propyl]carbamoyl]phenyl]-5-(trifluoromethyl)pyridine-3-carboxamide], 10.6 nM; that for `CNC(=O)C(=O)[C@H](C[C@@H]1CCNC1=O)NC(=O)c1cc(Cl)ccc1NC(=O)CCC(F)(F)F` [Example 159, 5-chloro-N-[(1S)-3-(methylamino)-2,3-dioxo-1-[[(3S)-2-oxopyrrolidin-3-yl]methyl]propyl]-2-(4,4,4-trifluorobutanoylamino) benzamide], 7.9 nM.
The result for `O=C(NC1CC1)C(=O)[C@H](C[C@@H]1CCNC1=O)NC(=O)c1cc(Cl)ccc1NC(=O)C1(C(F)(F)F)CC1` [Example 102] reads 12.9 nM.
With `CNC(=O)C(=O)[C@H](C[C@@H]1C[C@@H](C)NC1=O)NC(=O)c1cc(Cl)ccc1NC(=O)C1CCCC(F)(F)C1` (single isomer, unassigned) [Example 199] the figure was 18.7 nM; with `O=C(Nc1ccc(Cl)cc1C(=O)N[C@@H](C[C@@H]1CCNC1=O)C(=O)C(=O)NC1CC1)OC1CC1` [Example 146, cyclopropyl N-[4-chloro-2-[[(1S)-3-(cyclopropylamino)-2,3-dioxo-1-[[(3S)-2-oxopyrrolidin-3-yl]methyl]propyl]carbamoyl]phenyl]carbamate], 3.9 nM; with `C[C@@H]1C[C@@H](C[C@H](NC(=O)c2cc(Cl)ccc2NC(=O)C2CC2)C(=O)C(=O)NC2CC2)C(=O)N1` [Example 145, 5-chloro-2-(cyclopropanecarbonylamino)-N-[(1S)-3-(cyclopropylamino)-1-[[(3S,5R)-5-methyl-2-oxo-pyrrolidin-3-yl]methyl]-2,3-dioxo-propyl]benzamide], 26.8 nM.
As to `CNC(=O)C(=O)[C@H](C[C@@H]1C[C@@H](C)NC1=O)NC(=O)c1ccccc1NC(=O)OC` [Example 103, methyl N-[2-[[(1S)-3-(methylamino)-1-[[(3S,5R)-5-methyl-2-oxo-pyrrolidin-3-yl]methyl]-2,3-dioxo-propyl]carbamoyl]phenyl] carbamate], the IC50 was 86.2 nM.
The result for `CNC(=O)C(=O)[C@H](C[C@@H]1C[C@@H](C)NC1=O)NC(=O)c1cc(Cl)ccc1NC(=O)C1CCC(F)(F)C1` (single isomer, unassigned) [Example 16] reads 31.6 nM.
For the compound `C[C@@H]1C[C@@H](C[C@H](NC(=O)c2cc(C#N)ccc2NC(=O)c2cccc(F)c2)C(=O)C(=O)NC2CC2)C(=O)N1` [Example 32, 5-cyano-N-[(1S)-3-(cyclopropylamino)-1-[[(3S,5R)-5-methyl-2-oxo-pyrrolidin-3-yl]methyl]-2,3-dioxo-propyl]-2-[(3-fluorobenzoyl)amino] benzamide], the IC50 was determined as 12.3 nM.
The result for `CNC(=O)C(=O)[C@H](C[C@@H]1CCNC1=O)NC(=O)c1cc(Cl)ccc1NC(=O)OC(C)C(F)(F)F` (stereo partly shown) [Example 180] reads 4.5 nM; that for `CNC(=O)C(=O)[C@H](C[C@@H]1CCNC1=O)NC(=O)c1cc(Cl)ccc1NC(=O)OC(C)(C)C` [Example 142, tert-butyl N-[4-chloro-2-[[(1S)-3-(methylamino)-2,3-dioxo-1-[[(3S)-2-oxopyrrolidin-3-yl]methyl]propyl]carbamoyl]phenyl]carbamate], 41.1 nM; that for `[2H]C([2H])([2H])OC(=O)Nc1ccc(Cl)cc1C(=O)N[C@@H](C[C@@H]1CCNC1=O)C(=O)C(=O)NC` [Example 108, trideuteriomethyl N-[4-chloro-2-[[(1S)-3-(methylamino)-2,3-dioxo-1-[[(3S)-2-oxopyrrolidin-3-yl]methyl]propyl]carbamoyl]phenyl]carbamate], 4.8 nM.
The result for `C[C@@H]1C[C@@H](C[C@H](NC(=O)c2cc(Cl)ccc2NC(=O)c2ccnc(C(F)F)c2)C(=O)C(=O)NC2CC2)C(=O)N1` [Example 92, N-[4-chloro-2-[[(1S)-3-(cyclopropylamino)-1-[[(3S,5R)-5-methyl-2-oxo-pyrrolidin-3-yl]methyl]-2,3-dioxo-propyl]carbamoyl]phenyl]-2-(difluoromethyl)pyridine-4-carboxamide] reads 9 nM.
On to `CNC(=O)C(=O)[C@H](C[C@@H]1C[C@@H](C(F)(F)F)NC1=O)NC(=O)c1cc(Cl)ccc1NC(=O)C1CC(F)(F)C1` [Example 41, 5-chloro-2-[(3,3-difluorocyclobutanecarbonyl)amino]-N-[(1S)-3-(methylamino)-2,3-dioxo-1-[[(3R,5S)-2-oxo-5-(trifluoromethyl)pyrrolidin-3-yl]methyl]propyl]benzamide], for which the IC50 stood at 9.9 nM.
`C[C@@H]1C[C@@H](C[C@H](NC(=O)c2cc(Cl)cc(F)c2NC(=O)C23CC(F)(C2)C3)C(=O)C(=O)NC2CC2)C(=O)N1` [Example 206]: the IC50 was found to be 12.8 nM.
